Series [1] deals with F-spondin expression in human chondrocytes. The series can be described thus: Induction of F-spondin expression in human chondrocytes, TaqMan quantitative PCR. It counts as cell-based. An excerpt: In another particular embodiment, the candidate compound is further tested for an effect in an animal model for arthritis, or a cartilage degenerative condition, wherein said arthritis or cartilage degenerative condition is characterized by elevated levels of F-spondin. Examples of animal models for studying arthritis and cartilage degenerative conditions may be found in the following publications, which are incorporated in their entireties: Ameye, L. G. et al., Current Opinion in Rheumatology (2006), 18(5):537-547; Warskyj, M. and Hukins, D W, Br. J. of Rheumatology (1990), 29:219-221; Bolter, S. M. et al., Biorheology, (2006), 43(3-4):379-388; Carlson, C. S. et al., J. Bone Miner. Res. (1996), September; 11(9):1209-1217; Moreau, M. et al., J. Rheumatology (2006), June; 33(6):1176-1183; Laurent, D. et al. Skeletal Radiol., (2006), August; 35(8):555-564; Hotta, H. et al. J. Orthop. Sci. (2005), November; 10(6):595-607; Mastbergen, S. C. et al. Rheumatology (Oxford), (2006), April; 45(4):405-413; and Mastbergen, S. C. et al., Osteoarthritis Cartilage (2006), January; 14(1):39-46. Chambers M. G. et al., Arthritis and Rheumatism (2001) June 44(6):1455-1465. In another particular embodiment, the potential inducers of F-spondin in cartilage/chondrocytes for use in a therapeutic setting may be selected from the group consisting of prostaglandin E2 (PGE2), cAMP inducers, Bone morphogenic protein 2 (BMP-2), Insulin-like growth factor (IGF), Fibroblast growth factor basic (FGFbasic) and Transforming Growth factor b1 (TGF-b1). […] Accordingly, it is envisioned that these agents may be used for treating conditions as described herein.
Background: In qPCR the cycle at which signal appears reflects the starting amount.

The next series deals with cartilage explants. The series can be described thus: Effect of PGE2 on cartilage explants. In kind it is cell-based, human. The settings on record: PGE2 1-10 uM. As to the method: (§1) F-spondin induced both catabolic and anabolic gene/gene products in chondrocytes including BMP-2, type II collagen, TGF-β1, COX-2, mPGES and PGE2. To begin to address the question of whether selected F-spondin effects in cartilage are mediated by prostaglandin production, we have begun studies to characterize the effect of PGE2 in cartilage. Addition of PGE2 (1-10 uM) to cartilage explants inhibited type II collagen, aggrecan expression, ^35SO4 incorporation, as well as increased type II collagen degradation as assessed by C12C ELISA (IBEX). […] Relative to normals, NURR1 was overexpressed in OA cartilage (2-5 fold) and synovium (2 fold), confirmed by QPCR. Incubation of OA chondrocytes with PGE2 (1-10 uM) induced NURR1 expression (20-50 fold), as analyzed by QPCR. Since NURR1 binds to the NURR1 cis-acting sequence (NBRE) in the promoter region of a variety of genes, we examined the effect of adenoviral-mediated over-expression of NURR1 in chondrocytes.

The next series concerns OA chondrocytes. In words: Effect of PGE2 on chondrocytes (secretion, NURR1 QPCR). In kind it is cell-based, human. As to the method: as §1
Series [2] deals with chick sternal chondrocytes. In words: Retinoic acid induced maturation of chick sternal chondrocytes (RT-PCR, AP staining). In kind it is cell-based. As for the experimental part: FIGS. 21A and 21B. […] Upper sternal chondrocytes were exposed to 0, 10, 35 or 100 nM retinoic acid (RA) for 5 days in culture. […] (B) Relative gene expression levels of chondrocyte maturation markers were determined by semi-quantitative RT-PCR of RNA harvested from parallel cultures. Values represent mean±std deviation for triplicate samples.
Chondrocytes were isolated from the cephalic and caudal portion of day 14 chick embryo sterna as described by (Teixeira C C, Shapiro I M, Hatori M, Rajpurohit R, Koch C. Retinoic acid modulation of glutathione and cysteine metabolism in chondrocytes. Biochem J 1996; 314 (Pt 1):21-6). After 5 days of primary culture, chondrocytes were separated from the attached fibroblasts, harvested by centrifugation, counted, and plated in tissue culture dishes in complete medium supplemented with hyaluronidase (4-units/ml) to promote attachment. After becoming confluent, and to induce maturation, cells were treated daily with all-trans retinoic acid (35-100 nM) (Sigma) in the presence of ascorbate-2-phosphate (100 μM) for 1 week. Control cultures were treated with an equal volume of vehicle. Cultures were provided with β-glycerophosphate (5 mM) to serve as phosphate donor. For transfections, chondrocytes were transiently transfected with a plasmid encoding full length F-spondin cDNA under control of a CMV promoter, 1 day after plating in monolayer culture, using the FuGene 6 Transfection Reagent (Roche, Nutley, N.J.) according to the manufacturer's specifications. Parallel transfections with a CMV-GFP plasmid was used as a null control and to estimate transfection efficiency.
To investigate the role of F-spondin in chondrocyte maturation, we used an in vitro model in which chick sternal chondrocytes mimic growth plate chondrocytes and undergo terminal differentiation in response to RA treatment. […] Chick chondrocytes were stimulated with increasing doses of RA (10-100 nm) and harvested for gene expression analysis by qPCR after 5 days. The relative gene expression of type X collagen (ColX), alkaline phosphatae (AP), MMP-13, and F-spondin were assessed with increasing maturation on RA stimulation (FIG. 14).
Chondrocytes were isolated from the cephalic (upper) portion of 14 day old chick embryo sterna as previously described (Teixeira, C. C., et al. (1995) Calcif Tissue Int 56:252-56).^15. After 5 days of primary culture, floating chondrocytes were separated from the attached fibroblasts, and plated in tissue culture dishes in DMEM supplemented with 10% FBS and hyaluronidase (4-units/ml) to promote attachment. At confluence, differentiation was induced by daily treatment with all-trans retinoic acid (RA) from 0.1% v/v aliquots of a 1000-fold stock solution in 95% ethanol. Final concentrations ranged from 10 to 100 nM. To examine the effect of F-spondin overexpression, cultures were transfected at 70-80% confluence, with either full length (pFSI), truncated (pFS6) F-spondin cDNAs or control vector pcDNA3 (Invitrogen) using GenePorter transfection reagent (Genlantis, San Diego, Calif.). Differentiation was induced by daily treatments with 100 nM RA, which were initiated the following day. For F-spondin inhibition studies, a TSR domain specific F-spondin antibody (R1), or a spondin domain specific F-spondin antibody (R4) (R1 and R4 antibodies were provided by Dr. Avihu Klar (Hebrew University, Jerusalem, Israel), were added to chondrocyte cultures (1:100 dilution), every other day 1 h prior to RA treatment.
Different regions of the chick growth plate were visually identified and dissected into separate tubes, frozen in liquid nitrogen and crushed. Total RNA was extracted using Trizol® reagent (Life Technologies, Gaitherburg, Md.) per manufacturer's instructions.

A further series has as its system bone marrow-derived MSCs. The series can be described thus: Chondrogenesis of bone marrow-derived MSC aggregate cultures. As to conditions: for staining for proteoglycan, type II and type X collagen: 21 d aggregates, adenoviral expression 50 ng/ml; for chondrogenesis in aggregate cultures: adult bone marrow-derived MSCs. It counts as cell-based. As to the method: FIG. 6: Chondrogenesis of postnatal MSCs following exposure to TGF-β and BMP-2. Bone marrow-derived MSCs were modified to express 50 ng/ml BMP-2 or TGF-β1 using first generation recombinant adenoviral vectors and seeded into high density aggregates. After 21 d, aggregates were fixed, sectioned and stained for the presence of chondrogenic markers using toluidine blue (proteoglycan) and immunostaining for type II and X collagen. This pattern was consistent over three experiments.
Upon histological examination important differences between TGF-β1 and BMP-2-treated cultures were noted (FIG. 6). […] We propose to extend these studies further, in order to more fully characterize extracellular matrix protein expression during chondrocyte maturation and the relationship to F-spondin, by comparing the effects of various chondroinductive factors.

Experimental findings from patent US20140274766A1, “METHODS OF USING F-SPONDIN AS A BIOMARKER FOR CARTILAGE DEGENERATIVE CONDITIONS AND BONE DISEASES” (priority 2009, published 2014) are described below.

With `CCCCC[C@H](O)/C=C/[C@H]1[C@H](O)CC(=O)[C@@H]1C/C=C\CCCC(=O)O` [PGE2, prostaglandin E2], the F-spondin expression result in series [1] was “induced F-spondin expression”. Further, in the series on cartilage explants, the 35SO4 incorporation entry is recorded as “inhibited”, the aggrecan expression entry was “inhibited”, the “type II collagen degradation (C12C ELISA)” value is reported as “increased” and the “type II collagen expression” value is given as “inhibited”. Also, the “induction of NURR1 expression” value in the series with OA chondrocytes (OA chondrocytes, PGE2 1-10 uM, QPCR) is 20-50 fold. Moreover, in the series on OA chondrocytes (chondrocytes), the MMP-1 secretion entry is recorded as “decreased”, the “secretion of IL-6” value was “increased”, the “secretion of IL-8” value is “increased” and the “secretion of MMP-13” value is reported as “increased”.
As for `CC1=C(/C=C/C(C)=C/C=C/C(C)=C/C(=O)O)C(C)(C)CCC1` [RA, all-trans retinoic acid], the “F-spondin expression relative to controls” value in series [2] (100 nM RA, 5 days, p=0.04) is recorded as “approximately 3 fold”. For the same molecule, in series [2] (RA 0-100 nM, 5 days, RT-PCR), the MMP-13 expression entry is given as “increased”, the VEGF expression result is “increased”, the “type I collagen expression” value is listed as “pronounced upregulation” and the “type II collagen expression” value is listed as “marked downregulation”. For the same molecule, the “type X collagen expression” value in series [2] (RA 0-100 nM, 5 days, RT-PCR) is “did not increase”. In series [2] (RA 0-100 nm, 5 days), the “AP activity (red staining)” value is given as “dose dependant increase”. Besides, the “increase in F-spondin gene expression” value in series [2] (RA 10-100 nm, 5 days, vs non-stimulated controls) is given as 2- to 4 fold. In addition, the “upregulation of F-spondin following RA treatment” value in series [2] (chick sternal model, p<0.05) was 3.5 fold.
On to “FGF basic: Fibroblast growth factor basic”, for which the F-spondin expression result in series [1] is “induced F-spondin expression”.
In the case of “TGF-β1: Transforming growth factor-beta 1”, the F-spondin expression entry in series [1] was “induced F-spondin expression”. In the series with bone marrow-derived MSCs, the “staining for proteoglycan, type II and type X collagen” value is “generally lower”; the “chondrogenesis in aggregate cultures” value was “undergo chondrogenesis”.

B1: BMP-2: protein that induces the formation of bone and cartilage (protein, listed as Homo sapiens)
chain: MVAGTRCLLALLLPQVLLGGAAGLVPELGRRKFAAASSGRPSSQPSDEVLSEFELRLLSMFGLKQRPTPSRDAVVPPYMLDLYRRHSGQPGSPAPDHRLERAASRANTVRSFHHEESLEELPETSGKTTRRFFFNLSSIPTEEFITSAELQVFREQMQDALGNNSSFHHRINIYEIIKPATANSKFPVTRLLDTRLVNQNASRWESFDVTPAVMRWTAQGHANHGFVVEVAHLEEKQGVSKRHVRISRSLHQDEHSWSQIRPLLVTFGHDGKGHPLHKREKRQAKHKQRKRLKSSCKRHPLYVDFSDVGWNDWIVAPPGYHAFYCHGECPFPLADHLNSTNHAIVQTLVNSVNSKIPKACCVPTELSAISMLYLDENEKVVLKNYQDMVVEGCGCR
As to B1, in series [1], the F-spondin expression entry is recorded as “induced F-spondin expression”. Moreover, in the series on bone marrow-derived MSCs, the “staining for proteoglycan, type II and type X collagen” value is recorded as “more intense staining”; the “chondrogenesis in aggregate cultures” value is “undergo chondrogenesis”.
